Structures are written as SMILES. The source made the active and inactive calls. Bounds are passed on as bounds.

Experiment [1] concerns the target T1, High affinity choline transporter 1 (Homo sapiens, UniProt Q9GZV3).
T1 sequence (Q9GZV3 whole entry): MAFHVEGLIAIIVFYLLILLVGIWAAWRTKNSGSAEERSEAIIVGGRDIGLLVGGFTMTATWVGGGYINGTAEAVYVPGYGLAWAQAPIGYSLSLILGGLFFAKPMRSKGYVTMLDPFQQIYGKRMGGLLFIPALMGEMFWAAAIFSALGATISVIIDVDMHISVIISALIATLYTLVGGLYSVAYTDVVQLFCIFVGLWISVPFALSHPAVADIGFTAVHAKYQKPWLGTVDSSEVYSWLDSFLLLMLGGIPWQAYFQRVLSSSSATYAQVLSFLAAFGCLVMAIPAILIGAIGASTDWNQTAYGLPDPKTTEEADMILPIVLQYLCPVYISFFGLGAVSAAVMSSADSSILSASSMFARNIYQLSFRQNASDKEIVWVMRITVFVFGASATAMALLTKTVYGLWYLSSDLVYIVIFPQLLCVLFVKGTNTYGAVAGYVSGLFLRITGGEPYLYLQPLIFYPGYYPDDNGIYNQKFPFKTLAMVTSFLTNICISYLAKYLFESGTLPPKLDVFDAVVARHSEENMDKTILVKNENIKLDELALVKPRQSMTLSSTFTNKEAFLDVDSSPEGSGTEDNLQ
In words: CHT inhibitors, dose response, cell-based, 10-point CRC, membrane potential dye (AID 588401).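 Note: membrane potential dye fluorescence of choline-evoked depolarization via CHT.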 The experiment is classed as functional.

For experiment [2], the target named is T1, High affinity choline transporter 1. In words: CHT inhibitors, dose response, cell-based, 5-point CRC, membrane potential dye (AID 504840). Format: functional.
In experiment [3] the test system is Streptococcus sp. 'group A'. Nature of the experiment: growth inhibition of control SK(-) GAS strain, dose response, counter-screen for streptokinase expression inhibitor project, luminescence, kanamycin, BacTiterGlo, confirmation (AID 1900). Format: functional, organism-based. (In general: Counterscreens check selectivity or assay interference.)
The target in experiment [4] is T2, Streptokinase A (Streptococcus pyogenes serotype M1, UniProt P10520).
T2 sequence (P10520 whole entry): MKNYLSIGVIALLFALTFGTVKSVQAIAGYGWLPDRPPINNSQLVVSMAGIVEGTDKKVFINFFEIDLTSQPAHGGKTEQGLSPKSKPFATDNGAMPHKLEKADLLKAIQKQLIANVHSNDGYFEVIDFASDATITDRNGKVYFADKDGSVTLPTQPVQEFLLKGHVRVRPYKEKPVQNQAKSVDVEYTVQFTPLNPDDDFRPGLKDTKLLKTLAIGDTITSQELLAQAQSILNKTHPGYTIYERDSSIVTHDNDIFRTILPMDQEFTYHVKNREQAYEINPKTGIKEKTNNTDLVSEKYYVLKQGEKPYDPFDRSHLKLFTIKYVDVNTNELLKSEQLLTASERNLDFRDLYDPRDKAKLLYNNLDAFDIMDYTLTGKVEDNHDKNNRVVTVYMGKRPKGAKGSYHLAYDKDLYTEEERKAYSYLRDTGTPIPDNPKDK
Nature of the experiment: S. pyogenes streptokinase expression inhibitors, potency, dose response, plasminogen activation absorbance, OD405 (AID 1914).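 Note: secreted streptokinase activity via plasminogen activation per viability signal from cell pellet.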 Format: functional, Streptococcus pyogenes M1 GAS.

The test system of experiment [5] is Streptococcus. Nature of the experiment: Group A Streptococcus viability loss, dose response, counter-screen for streptokinase expression inhibitor project, luminescence, BacTiterGlo (AID 1915).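 Note: potency for reduction of bacterial viability or growth.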 Format: functional, organism-based.
For experiment [6], the target named is T3, Replicative DNA helicase DnaB (Mycobacterium tuberculosis, UniProt P9WMR3).
T3 sequence (P9WMR3 whole entry): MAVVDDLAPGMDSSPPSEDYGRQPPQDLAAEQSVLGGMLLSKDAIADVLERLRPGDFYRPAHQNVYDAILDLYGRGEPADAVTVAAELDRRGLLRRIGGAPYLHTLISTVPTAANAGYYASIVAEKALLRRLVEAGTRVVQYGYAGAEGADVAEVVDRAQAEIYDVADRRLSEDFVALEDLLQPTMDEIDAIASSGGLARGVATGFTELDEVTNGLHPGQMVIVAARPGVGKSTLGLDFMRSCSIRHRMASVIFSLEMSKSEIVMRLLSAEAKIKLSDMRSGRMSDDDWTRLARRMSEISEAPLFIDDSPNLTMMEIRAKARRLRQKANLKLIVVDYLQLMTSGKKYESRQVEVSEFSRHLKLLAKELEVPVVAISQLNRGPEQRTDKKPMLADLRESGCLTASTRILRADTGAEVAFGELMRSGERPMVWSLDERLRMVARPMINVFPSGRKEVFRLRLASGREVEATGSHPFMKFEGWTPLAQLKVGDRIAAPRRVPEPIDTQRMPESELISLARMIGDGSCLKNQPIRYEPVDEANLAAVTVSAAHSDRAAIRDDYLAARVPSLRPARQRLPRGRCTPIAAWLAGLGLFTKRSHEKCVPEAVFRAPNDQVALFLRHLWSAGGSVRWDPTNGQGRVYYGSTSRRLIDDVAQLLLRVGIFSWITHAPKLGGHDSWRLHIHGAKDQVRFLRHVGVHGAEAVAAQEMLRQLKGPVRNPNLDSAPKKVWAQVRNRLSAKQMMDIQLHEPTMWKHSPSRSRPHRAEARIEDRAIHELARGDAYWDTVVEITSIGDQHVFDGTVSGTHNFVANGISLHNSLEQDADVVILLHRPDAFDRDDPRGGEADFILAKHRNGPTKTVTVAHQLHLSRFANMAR
In words: DnaB intein splicing inhibitors, dose response, biochemical, cell-free fluorescence (AID 449749). The experiment is classed as functional.

Experiment [7] has as its target Melanocortin receptor 4 (Homo sapiens, UniProt P32245). In words: MC4R antagonist potency on cAMP, dose response, cell-based, TR-FRET, biased antagonists (AID 602298).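 Note: antagonist potency against agonist-stimulated cAMP production.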 Format: functional. For orientation: In TR-FRET formats the signal depends on donor and acceptor labels being close together.
The target of experiment [8] is T4, Sphingosine 1-phosphate receptor 4 (Homo sapiens, UniProt O95977).
T4 sequence (O95977 whole entry): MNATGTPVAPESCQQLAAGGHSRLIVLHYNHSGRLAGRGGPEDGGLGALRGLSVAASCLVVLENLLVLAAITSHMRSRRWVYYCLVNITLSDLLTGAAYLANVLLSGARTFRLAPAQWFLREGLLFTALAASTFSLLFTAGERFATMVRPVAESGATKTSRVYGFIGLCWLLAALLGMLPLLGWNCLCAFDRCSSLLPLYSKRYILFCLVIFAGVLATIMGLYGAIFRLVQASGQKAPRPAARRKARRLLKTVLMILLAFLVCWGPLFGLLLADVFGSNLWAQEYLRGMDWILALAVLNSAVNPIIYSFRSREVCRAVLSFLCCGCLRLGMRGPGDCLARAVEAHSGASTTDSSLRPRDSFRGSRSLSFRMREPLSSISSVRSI
Nature of the experiment: Fluorescence dose response cell-based high throughput screening assay for antagonists of the Sphingosine 1-Phosphate Receptor 4 (S1P4). [Related pubchem assays: 1524 (Confirmation in triplicates.), 1510 (Primary screen.)]. Format: functional.

Experiment [9] is described as follows: Luminescence Cell-Based Dose Retest to Confirm Inhibitors of Cancer Stem Cells. [Related pubchem assays (depositor defined):AID2717, AID2721]. The experiment is classed as functional. The conditions noted are these: Homo sapiens.
Experiment [10] addresses T5, Protein RecA (Mycobacterium tuberculosis, UniProt P9WHJ3).
T5 sequence (P9WHJ3 whole entry): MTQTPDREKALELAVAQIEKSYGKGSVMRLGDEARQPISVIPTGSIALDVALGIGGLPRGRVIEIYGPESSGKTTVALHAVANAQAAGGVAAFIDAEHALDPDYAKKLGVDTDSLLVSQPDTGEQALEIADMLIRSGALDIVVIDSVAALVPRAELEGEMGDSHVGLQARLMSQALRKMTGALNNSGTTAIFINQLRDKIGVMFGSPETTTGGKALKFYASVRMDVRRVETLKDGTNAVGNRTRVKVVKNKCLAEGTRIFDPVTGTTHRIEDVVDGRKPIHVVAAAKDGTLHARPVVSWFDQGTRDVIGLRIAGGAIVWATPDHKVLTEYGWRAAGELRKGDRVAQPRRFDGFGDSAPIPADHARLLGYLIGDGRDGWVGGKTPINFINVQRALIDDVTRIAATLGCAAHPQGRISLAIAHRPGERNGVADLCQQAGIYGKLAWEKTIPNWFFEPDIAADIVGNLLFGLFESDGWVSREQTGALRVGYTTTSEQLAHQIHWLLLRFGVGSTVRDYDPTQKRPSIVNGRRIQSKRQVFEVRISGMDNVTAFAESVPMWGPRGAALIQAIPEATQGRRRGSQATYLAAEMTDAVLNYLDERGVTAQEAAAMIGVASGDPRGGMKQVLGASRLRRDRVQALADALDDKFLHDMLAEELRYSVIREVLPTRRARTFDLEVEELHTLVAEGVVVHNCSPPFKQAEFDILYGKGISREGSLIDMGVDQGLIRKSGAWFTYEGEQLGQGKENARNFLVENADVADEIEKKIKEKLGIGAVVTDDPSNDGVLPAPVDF
Nature of the experiment: Fluorescence Cell-Free Homogeneous Dose Retest to Identify Inhibitors of RecA-Intein Splicing Activity. [Related pubchem assays (depositor defined):AID2097, AID2223, AID489010, AID492950]. The experiment is classed as functional.

Experiment [11] in a line: nonselective inhibitors of cellular cAMP signaling, dose response, counter-screen for MC4R biased antagonist project, cell-based, TR-FRET cAMP detection (AID 602305).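 Note: U2OS cells stimulated with forskolin near its EC80 as the cAMP inducer; potency is for inhibition of forskolin-stimulated cAMP signaling.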 The experiment is classed as functional.
For experiment [12], the target named is Sphingosine 1-phosphate receptor 1 (Homo sapiens, UniProt P21453). The experiment is classed as functional.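 Note: Tango beta-arrestin reporter U2OS cells stimulated with S1P near its EC80; inhibitor potency meaning antagonism of receptor activation by the natural agonist.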
Experiment [13] in a line: growth suppression of PTEN-null colon cells, dose response, cell-based, HCT116 PTEN knockout (AID 1047).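 Note: HCT116 colon tumor cells with PTEN knocked out; cells exposed to compound for 60 hours before readout; potency for loss of cell viability measured by luminescence.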 The experiment is classed as functional.
Experiment [14] addresses T4, Sphingosine 1-phosphate receptor 4. In words: Late stage fluorescence dose response cell-based screening assay for antagonists of the Sphingosine 1-Phosphate Receptor 4 (S1P4). [Related pubchem assays: 1524 (Confirmation screen (S1P4 antagonists).), 1510 (Primary screen (S1P4 antagonists).), 1853 (Summary AID (S1P4 antagonists).), 1692 (Dose response screen (S1P4 antagonists).)]. The experiment is classed as functional.

Experiment [15] is described as follows: growth suppression of beta-catenin-knockout colon cells, dose response, cell-based, HCT116, human colon tumor (AID 1045).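 Note: HCT116 colon tumor cells with beta catenin knocked out; cells exposed to compound for 60 hours.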 The experiment is classed as functional.
Experiment [16] has as its target Neuropeptides B/W receptor type 1 (Homo sapiens, UniProt P48145). Nature of the experiment: GPR7 antagonist potency, late-stage follow-up, cell-based, fluorescence, dose response, set 5 (AID 588566). Format: functional.
Experiment [17] has as its target Melanin-concentrating hormone receptor 1 (Homo sapiens, UniProt Q99705). In words: Late-stage fluorescence-based counterscreen for antagonists of the G-protein coupled receptor 7 (GPR7): cell-based dose response assay to identify antagonists of the melanin-concentrating hormone receptor 1 (MCHR1) Set 5. Format: functional.

Sequence of Sphingosine 1-phosphate receptor 1 (P21453 whole entry): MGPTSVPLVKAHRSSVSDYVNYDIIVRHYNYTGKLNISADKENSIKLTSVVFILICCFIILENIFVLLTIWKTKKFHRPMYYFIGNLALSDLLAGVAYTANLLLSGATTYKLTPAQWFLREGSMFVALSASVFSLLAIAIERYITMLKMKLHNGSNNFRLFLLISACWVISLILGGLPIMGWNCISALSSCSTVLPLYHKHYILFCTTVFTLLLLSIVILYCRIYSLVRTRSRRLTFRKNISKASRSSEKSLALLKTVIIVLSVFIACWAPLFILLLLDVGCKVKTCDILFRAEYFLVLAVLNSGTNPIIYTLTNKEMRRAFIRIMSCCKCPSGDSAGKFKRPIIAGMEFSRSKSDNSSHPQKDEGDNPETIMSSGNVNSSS
Sequence of Melanocortin receptor 4 (P32245 whole entry): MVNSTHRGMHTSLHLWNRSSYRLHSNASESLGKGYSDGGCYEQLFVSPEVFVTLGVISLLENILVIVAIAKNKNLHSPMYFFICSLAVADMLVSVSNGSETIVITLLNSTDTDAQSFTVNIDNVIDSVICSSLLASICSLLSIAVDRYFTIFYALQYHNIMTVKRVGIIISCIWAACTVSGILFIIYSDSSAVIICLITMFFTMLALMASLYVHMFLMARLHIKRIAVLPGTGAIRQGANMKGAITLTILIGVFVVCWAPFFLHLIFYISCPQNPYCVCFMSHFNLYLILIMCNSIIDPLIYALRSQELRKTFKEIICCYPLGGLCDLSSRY
Sequence of Melanin-concentrating hormone receptor 1 (Q99705 whole entry): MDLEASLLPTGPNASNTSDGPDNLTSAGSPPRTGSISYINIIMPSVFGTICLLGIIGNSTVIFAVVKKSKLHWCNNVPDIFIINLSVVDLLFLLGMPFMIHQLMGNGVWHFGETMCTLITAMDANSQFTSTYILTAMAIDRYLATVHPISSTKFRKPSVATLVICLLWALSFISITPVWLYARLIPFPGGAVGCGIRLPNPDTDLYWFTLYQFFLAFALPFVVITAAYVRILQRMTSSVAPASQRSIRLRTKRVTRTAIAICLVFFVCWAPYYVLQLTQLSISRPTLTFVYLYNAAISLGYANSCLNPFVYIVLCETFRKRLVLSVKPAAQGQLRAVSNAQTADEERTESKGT
Sequence of Neuropeptides B/W receptor type 1 (P48145 whole entry): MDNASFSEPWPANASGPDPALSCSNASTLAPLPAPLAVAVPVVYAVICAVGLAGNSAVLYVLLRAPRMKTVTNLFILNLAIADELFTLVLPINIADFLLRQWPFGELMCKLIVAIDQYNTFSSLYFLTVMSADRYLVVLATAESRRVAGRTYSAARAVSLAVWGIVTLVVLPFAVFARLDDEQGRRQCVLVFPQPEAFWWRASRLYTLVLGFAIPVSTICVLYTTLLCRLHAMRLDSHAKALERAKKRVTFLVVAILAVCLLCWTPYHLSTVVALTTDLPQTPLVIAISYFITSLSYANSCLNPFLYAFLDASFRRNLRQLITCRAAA

For the compound `Clc1cc(I)cc(Cl)c1N=C1NCCN1`, the IC50 – broadly, the concentration at which inhibition is half-maximal – in [1] is 843 nM (active); in [2] it was 1.12 µM (active).

For `O=[N+]([O-])c1cc(S(=O)(=O)C(F)(F)F)ccc1Sc1nc2ccccc2[nH]1`, the EC50 (in general, the midpoint of the concentration-response curve) in experiment [3] was 5.93 µM (active); in experiment [4], > 150 µM (not active); in experiment [5], 11.9 µM (active); in [10], 774 nM (active); in experiment [13], 7.22 µM (active); in experiment [15], 6.72 µM (active). Moreover, the values for the AC50 in experiment [6] and in [9] were 2.83 µM (active) and 4.04 µM (active), respectively. The IC50 is 7.65 µM (active) in experiment [7]; 1.29 µM (active) in experiment [8]; > 64.6 µM (inactive) in [11]; 34.3 µM (not active) in experiment [12]; 770 nM (active) in [14].

In the case of `O=c1c(Oc2ccc3ccccc3c2)c(Cl)cnn1Cc1cccc2ccccc12`, the IC50 in [16] and in experiment [17] was > 20 µM (inactive) throughout.

(Values after ChEMBL document CHEMBL1201862, “PubChem BioAssay data set” (2004).)
